Data taken from US8778939B2, “Compounds” (Glaxo Group Limited, priority 2009, dated 2014).

How the values were obtained:
[1] = target: T1, 6His-Tev-LRRK2 (1326-2527) (Homo sapiens, UniProt Q5S007); assay: LRRK2 peptide substrate assay; assay type: biochemical; conditions: Biotin-LRRKtide peptide substrate, ATP at Km
T1 construct: A LRRK2 cDNA encoding residues 1326-2527 was received from Dundee University; made in house; host or cells: Spodoptera frugiperda (Sf9) insect cells, baculovirus
T1 sequence (Q5S007 1326-2527): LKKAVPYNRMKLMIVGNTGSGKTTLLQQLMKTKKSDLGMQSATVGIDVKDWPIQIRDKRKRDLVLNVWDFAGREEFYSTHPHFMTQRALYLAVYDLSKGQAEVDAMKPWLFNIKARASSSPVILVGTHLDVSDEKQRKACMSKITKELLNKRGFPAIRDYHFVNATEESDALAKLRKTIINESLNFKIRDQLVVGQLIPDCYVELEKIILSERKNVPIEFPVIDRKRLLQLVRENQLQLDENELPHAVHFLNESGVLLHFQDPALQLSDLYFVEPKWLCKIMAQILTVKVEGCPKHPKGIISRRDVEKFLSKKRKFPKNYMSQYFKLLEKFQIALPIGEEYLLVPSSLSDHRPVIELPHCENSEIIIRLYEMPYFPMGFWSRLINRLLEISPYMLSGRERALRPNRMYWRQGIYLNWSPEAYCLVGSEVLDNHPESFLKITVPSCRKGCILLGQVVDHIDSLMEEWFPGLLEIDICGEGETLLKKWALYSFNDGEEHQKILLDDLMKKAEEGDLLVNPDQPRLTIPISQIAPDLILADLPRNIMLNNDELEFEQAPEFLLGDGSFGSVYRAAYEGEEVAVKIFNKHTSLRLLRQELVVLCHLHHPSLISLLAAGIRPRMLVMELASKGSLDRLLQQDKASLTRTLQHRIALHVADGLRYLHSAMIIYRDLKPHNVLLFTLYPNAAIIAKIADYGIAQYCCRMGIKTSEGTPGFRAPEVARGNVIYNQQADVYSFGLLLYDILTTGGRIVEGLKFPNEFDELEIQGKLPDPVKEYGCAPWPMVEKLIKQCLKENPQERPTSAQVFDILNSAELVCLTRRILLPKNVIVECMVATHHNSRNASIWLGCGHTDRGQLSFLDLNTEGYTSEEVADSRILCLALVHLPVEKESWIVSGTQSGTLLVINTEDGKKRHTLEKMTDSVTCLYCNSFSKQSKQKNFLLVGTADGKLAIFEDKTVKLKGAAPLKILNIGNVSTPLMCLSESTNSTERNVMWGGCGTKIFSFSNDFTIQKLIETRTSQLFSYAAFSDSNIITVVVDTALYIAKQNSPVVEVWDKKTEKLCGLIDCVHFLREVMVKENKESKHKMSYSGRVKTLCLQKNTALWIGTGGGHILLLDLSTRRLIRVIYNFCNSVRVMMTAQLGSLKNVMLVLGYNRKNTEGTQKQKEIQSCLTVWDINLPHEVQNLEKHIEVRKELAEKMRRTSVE
Procedure: Compounds of formula (I) may be tested for in vitro kinase activity in accordance with the following assays, using the non natural, in vitro, substrates moesin and the Longer Biotin-LRRKtide. Moesin and a shorter version of the peptide were identified as substrates in Jaleel et al, (2007, Biochem J, 405: 307-317).
LRRK2 Peptide Substrate Assay
(§1) a) 100 nl of a 1:4 serial dilution of test compound with a top final assay concentration of 30 μM is added to certain wells in a low volume 384 well black plate. 100 nl of DMSO is used in certain wells as controls.
b) 3 μl enzyme solution (80 nM purified recombinant 6His-Tev-LRRK2 (1326-2527) in assay buffer: 50 mM Hepes (pH 7.2), 10 mM MgCl2, 150 mM NaCl, 5% glycerol, 0.0025% triton X-100 and 1 mM DTT) is added to certain wells. […] Plates are then incubated for a further 1-2 hours at room temperature (incubation time varies depending upon rate and linearity of reaction with differing enzyme batches). d) 6 μl detection solution (50 nM Streptavidin SureLight® APC (PerkinElmer), 4 nM Eu-W1024 labelled anti-rabbit IgG antibody (PerkinElmer), 1:500 dilution (dilution determined on a batch to batch basis) of Phospho-Ezrin (Thr567)/Radixin (Thr564)/Moesin (Thr558) Polyclonal Antibody (New England Biolabs) and 60 mM EDTA in buffer: 40 mM Hepes (pH 7.2), 150 mM NaCl, 0.03% BSA) is added to each well. Plates are then incubated for a further 2 hours at room temperature before reading on a suitable plate reader (Excitation 330 nm, emission 620 nm (Eu) and 665 nm (APC)). Data is analysed using ActivityBase software (IDBS). LRRK2 AlphaScreen Protein Substrate Assay

[2] = target: T1, 6His-Tev-LRRK2 (1326-2527); assay: LRRK2 AlphaScreen desensitised protein substrate assay; assay type: biochemical
Procedure: as §1
b) 3 μl enzyme solution (80 nM purified recombinant 6His-Tev-LRRK2 (1326-2527) in assay buffer: 50 mM Hepes (pH 7.2), 10 mM MgCl2, 150 mM NaCl, 5% glycerol, 0.0025% triton X-100 and 1 mM DTT) is added to certain wells.
Plates are then incubated for a further 1-2 hours at room temperature (incubation time varies depending upon rate and linearity of reaction with differing enzyme batches).
d) 6 μl detection solution (1:250 dilution of AlphaLisa Protein A Acceptor beads (PerkinElmer), 1:64 dilution of AlphaLisa Gluthathione Donor beads (PerkinElmer) and 1:600 dilution (dilution determined on a batch to batch basis) of Phospho-Ezrin (Thr567)/Radixin (Thr564)/Moesin (Thr558) Polyclonal Antibody (New England Biolabs) in a buffer: 50 mM Hepes (pH 7.5), 250 mM NaCl, 60 mM EDTA, 1% PEG and 0.01% Brij 35) is added to each well. Plates are then incubated for a further 2 hours at room temperature in the dark before reading on an EnVision™ plate reader with AlphaScreen HTS turbo option module and AlphaScreen settings. Data is analysed using ActivityBase software (IDBS).
LRRK2 AlphaScreen Desensitised Protein Substrate Assay
This is conducted as described for the LRRK2 alphascreen protein substrate assay, with the following differences: • 1. The concentration of ATP in the substrate solution was 2 mM. • 2. The plates were incubated for 20 minutes at room temperature following addition of the substrate solution. Pharmacological Data

[3] = read-out: pIC50 in the LRRK2 peptide substrate assay (converted)
[4] = excess of ATP present (2 mM ATP), read-out: pIC50 in the LRRK2 alphascreen desensitised protein substrate assay (converted)
[5] = mean pIC50, read-out: LRRK2 peptide substrate assay (pIC50) (converted)
[6] = mean pIC50, GST-PS-Moesin (400-577) substrate, 2 mM ATP (excess of ATP present), read-out: LRRK2 alphascreen desensitised protein substrate assay (pIC50) (converted)

IC50 [1, 3]	IC50 [1, 5]	SMILES	IC50 [2, 4]	IC50 [2, 6]
≤ 0.01 µM	–	CN1CCC[C@H]1COc1ccc(OCc2ccccc2)c(C(=O)Nc2cccnc2)c1 [Example 47, 5-({[(2S)-1-Methyl-2-pyrrolidinyl]methyl}oxy)-2-[(phenylmethyl)oxy]-N-3-pyridinylbenzamide]	≤ 20 µM	–
≤ 0.1 µM	0.0631 µM	O=C(Nc1cccnc1)c1cc(C(=O)N2CCOCC2)ccc1OCc1ccc(F)cc1 [Example 127, 2-{[(4-Fluorophenyl)methyl]oxy}-5-(4-morpholinylcarbonyl)-N-3-pyridinylbenzamide]	≤ 20 µM	10 µM
≤ 0.01 µM	–	CN1CCC[C@@H]1COc1ccc(OCc2ccccc2)c(C(=O)Nc2cccnc2)c1 [Example 45, 5-({[(2R)-1-Methyl-2-pyrrolidinyl]methyl}oxy)-2-[(phenylmethyl)oxy]-N-3-pyridinylbenzamide]	≤ 20 µM	–
≤ 0.1 µM	–	O=C(Nc1cccnc1)c1cc(CN2CCOCC2)ccc1OCc1ccc(F)c(F)c1 [Example 112, 2-{[(3,4-Difluorophenyl)methyl]oxy}-5-(4-morpholinylmethyl)-N-3-pyridinylbenzamide]	≤ 20 µM	–
≤ 0.01 µM	–	O=C(Nc1cccnc1)c1cc(-c2ccn[nH]2)ccc1OCc1ccc(F)c(F)c1 [Example 107, 2-{[(3,4-Difluorophenyl)methyl]oxy}-5-(1H-pyrazol-5-yl)-N-3-pyridinylbenzamide]	≤ 20 µM	–
≤ 0.1 µM	0.0794 µM	O=C(Nc1cccnc1)c1cc(C(=O)N2CCOCC2)ccc1OCc1ccccc1 [Example 38, 5-(4-Morpholinylcarbonyl)-2-[(phenylmethyl)oxy]-N-3-pyridinylbenzamide]	≤ 20 µM	7.94 µM
≤ 0.1 µM	–	Cn1cc(-c2ccc(OCc3ccc(F)c(F)c3)c(C(=O)Nc3cccnc3)c2)cn1 [Example 110, 2-{[(3,4-Difluorophenyl)methyl]oxy)-5-(1-methyl-1H-pyrazol-4-yl)-N-3-pyridinylbenzamide]	≤ 20 µM	–
≤ 0.1 µM	–	COc1cccc(COc2ccc(-c3cnn(C)c3)cc2C(=O)Nc2cccnc2)c1 [Example 115, 2-({[3-(Methyloxy)phenyl]methyl}oxy)-5-(1-methyl-1H-pyrazol-4-yl)-N-3-pyridinylbenzamide]	≤ 20 µM	–
≤ 0.01 µM	0.00316 µM	COCCn1cc(-c2ccc(OCc3ccc(F)cc3)c(C(=O)Nc3cccnc3)c2)cn1 [Example 130, 2-{[(4-Fluorophenyl)methyl]oxy}-5-{1-[2-(methyloxy)ethyl]-1H-pyrazol-4-yl}-N-3-pyridinylbenzamide]	≤ 20 µM	0.0316 µM
≤ 0.1 µM	–	O=C(Nc1cccnc1F)c1cc(C(=O)N2CCOCC2)ccc1OCc1ccc(F)cc1F [Example 125, 2-{[(2,4-Difluorophenyl)methyl]oxy)-N-(2-fluoro-3-pyridinyl)-5-(4-morpholinylcarbonyl)benzamide]	≤ 20 µM	–
≤ 0.01 µM	–	Cc1nocc1NC(=O)c1cc(-c2ccncc2)ccc1OCc1ccccc1 [Example 61, N-(3-Methyl-4-isoxazolyl)-2-[(phenylmethyl)oxy]-5-(4-pyridinyl)benzamide]	≤ 20 µM	–
≤ 0.1 µM	–	CN(C)Cc1ccc(OCc2ccccc2)c(C(=O)Nc2cccnc2)c1 [Example 71, 5-[(Dimethylamino)methyl]-2-[(phenylmethyl)oxy]-N-3-pyridinylbenzamide]	≤ 20 µM	–
≤ 0.01 µM	–	O=C(Nc1cccnc1)c1cc(-c2ccncc2)ccc1OCc1ccc(F)cc1 [Example 90, 2-{[(4-Fluorophenyl)methyl]oxy}-N-3-pyridinyl-5-(4-pyridinyl)benzamide]	≤ 20 µM	–
≤ 0.01 µM	–	Cn1cc(-c2ccc(OCc3ccccc3)c(C(=O)Nc3ccnnc3)c2)cn1 [Example 73, 5-(1-Methyl-1H-pyrazol-4-yl)-2-[(phenylmethyl)oxy]-N-4-pyridazinylbenzamide]	≤ 20 µM	–
≤ 0.1 µM	–	Cn1cc(-c2ccc(OCc3ccccc3C#N)c(C(=O)Nc3cccnc3)c2)cn1 [Example 113, 2-{[(2-Cyanophenyl)methyl]oxy}-5-(1-methyl-1H-pyrazol-4-yl)-N-3-pyridinylbenzamide]	≤ 20 µM	–
≤ 0.1 µM	0.0126 µM	Cc1nocc1NC(=O)c1cc(-c2cnn(CCN3CCOCC3)c2)ccc1OCc1ccc(F)cc1 [Example 129, 2-([(4-Fluorophenyl)methyl]oxy)-N-(3-methyl-4-isoxazolyl)-5-{1-[2-(4-morpholinyl)ethyl]-1H-pyrazol-4-yl}benzamide]	> 25.1 µM	> 25.1 µM
≤ 0.1 µM	–	O=C(Nc1ccnnc1)c1cc(-c2cn[nH]c2)ccc1OCc1ccc(F)c(F)c1 [Example 108, 2-{[(3,4-Difluorophenyl)methyl]oxy}-5-(1H-pyrazol-4-yl)-N-4-pyridazinylbenzamide]	≤ 20 µM	–
≤ 0.1 µM	0.0126 µM	Cn1cc(-c2ccc(OCc3ccc(F)cc3)c(C(=O)Nc3ccnnc3)c2)cn1 [Example 94, 2-{[(4-Fluorophenyl)methyl]oxy}-5-(1-methyl-1H-pyrazol-4-yl)-N-4-pyridazinylbenzamide]	≤ 20 µM	0.1 µM
≤ 0.01 µM	0.00794 µM	O=C(Nc1cccnc1)c1cc(-c2cnn(CCN3CCOCC3)c2)ccc1OCc1ccc(F)cc1 [Example 128, 2-{[(4-Fluorophenyl)methyl]oxy}-5-{1-[2-(4-morpholinyl)ethyl]-1H-pyrazol-4-yl}-N-3-pyridinylbenzamide]	≤ 20 µM	0.126 µM
